The source made the active and inactive calls.
Assays:
[1] = target: T1, Calpain-2 catalytic subunit (Sus scrofa, UniProt P43367); test: m-calpain protease blockers, concentration series – biochemical, fluorogenic peptide substrate, dose response (AID 1420); assay type: functional
T1 sequence (P43367 whole entry): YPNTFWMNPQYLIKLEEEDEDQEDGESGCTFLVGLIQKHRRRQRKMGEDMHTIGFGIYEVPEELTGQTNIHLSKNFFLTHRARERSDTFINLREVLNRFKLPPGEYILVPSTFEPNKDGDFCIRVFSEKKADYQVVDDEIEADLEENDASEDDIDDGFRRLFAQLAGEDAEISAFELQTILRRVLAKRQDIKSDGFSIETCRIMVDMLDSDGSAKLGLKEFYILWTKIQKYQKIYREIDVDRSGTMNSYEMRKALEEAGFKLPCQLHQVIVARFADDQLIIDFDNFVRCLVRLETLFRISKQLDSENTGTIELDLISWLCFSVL

Estrogen receptor = Estrogen receptor (Homo sapiens, UniProt P03372);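 also: potency for inhibiting coactivator peptide recruitment to the receptor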
[2] = alpha-synuclein stem-loop luciferase translation blockers – H4 neuroglioma cells, luminescence, confirmation (AID 1988); assay type: functional, cell-based
[3] = Luminescence Cell-Based Dose Response HTS to Identify Inhibitors of 5'UTR Stem-Loop Driven Prion Protein mRNA Translation in H4 Neuroglioblastoma Cells. [Related pubchem assays: 1827 (Project Summary), 1813 (Primary HTS)]; assay type: functional
[4] = luciferase reporter signal suppression in cells – H4 neuroglioma cells, luminescence, dose response (AID 1990); assay type: functional, cell-based
[5] = CCR5-tropic HIV-1 fusion blockers – cell-based, CCR5-tropic Env, dose response (AID 2279); assay type: functional
[6] = target: Neuropeptide Y receptor type 1 (Homo sapiens, UniProt P25929); test: Fluorescence-based counterscreen for agonists of NPY-Y2: cell-based high-throughput dose response assay for agonists of NPY-Y1.; assay type: functional
[7] = target: Neuropeptide Y receptor type 2 (Homo sapiens, UniProt P49146); test: Fluorescence-based cell-based high-throughput dose response assay for agonists of NPY-Y2. [Related pubchem assays: 1703 (Screening assay (CNGC inhibitors).), 1359 (Screening assay (NPY-Y2 potentiators or agonists).), 1304 (Screening assay (NPY-Y1 potentiators or agonists).), 1710 (Screening assay (NPY-Y2 agonists).), 1791 (Summary AID.)]; assay type: functional
HEK293 = test: Fluorescence-based counterscreen for potentiators or agonists of NPY-Y2: cell-based high-throughput dose response assay to identify inhibitors of cyclic nucleotide gated ion channel (CNGC) activity. In this assay, the parental HEK293 cell line transfected with a cyclic-nucleotide gated ion channel (CNGC)-based cAMP sensor is used to measure inhibition of isoproterenol-induced CNGC activity by test compound.; assay type: functional; conditions: Homo sapiens;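 also: stimulus is 1 µM isoproterenol at EC100 plus PDE inhibitor Ro 20-1724 at 25 µM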
[8] = viability loss in human Jurkat cells – cell-based, luminescence, cytotoxicity control for P. falciparum gametocyte viability project, dose response (AID 1117277); assay type: functional;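 also: potency reflects loss of cellular ATP meaning fewer viable cells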
[9] = viability inhibitors of stage V gametocytes – luminescence, dose response (AID 1117278); assay type: functional, cell-based;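 also: gametocytes exposed to compound for 24 hours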
Vasopressin V1a receptor = Vasopressin V1a receptor (Homo sapiens, UniProt P37288); test: Counterscreen for Oxytocin Receptor (OXTR) agonists: Fluorescence-based cell-based high throughput dose response assay to identify agonists of the vasopressin 1 receptor (V1R). [Related pubchem assays: 2435 (Primary screen (OXTR agonists in singlicate)), 434991 (Counterscreen (V1R agonists in triplicate)), 2482 (Summary (OXTR agonists)) …; assay type: functional
Oxytocin receptor = Oxytocin receptor (Homo sapiens, UniProt P30559); test: Fluorescence-based cell-based high throughput dose response assay for agonists of the Oxytocin Receptor (OXTR). [Related pubchem assays: 2435 (Primary screen (OXTR agonists in singlicate)), 434991 (Counterscreen (V1R agonists in triplicate)), 2482 (Summary (OXTR agonists)), 434963 (Confirmation screen (OXTR agonists in triplicate))]; assay type: functional
[10] = Luminescence Cell-Based Dose Retest to Confirm Inhibitors of Cancer Stem Cells. [Related pubchem assays (depositor defined):AID2717, AID2721]; assay type: functional; conditions: Homo sapiens
Steroidogenic factor 1 = Steroidogenic factor 1 (Homo sapiens, UniProt Q13285); test: Counterscreen for inverse agonists of the liver receptor homolog-1 (LRH-1; NR5A2): Luminescence-based cell-based high throughput dose response assay to identify inverse agonists of the Steroidogenic Factor 1 Nuclear Receptor (SF1; NR5A1).; assay type: functional
[11] = nonselective StAR promoter luciferase inhibitors – cell-based, luminescence, luciferase reporter, counter-screen for LRH-1 inverse agonist project, dose response (AID 651969); assay type: functional
[12] = mitochondrial function rescue without frataxin homolog – Friedreich's ataxia, plus single-dose screen, dose response (AID 1465); assay type: functional;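 also: yeast depleted of Yfh1p frataxin homolog grown on glycerol needing respiration; WST-1 tetrazolium dye reduction as measure of cellular dehydrogenase metabolic activity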
[13] = target: Nuclear receptor subfamily 5 group A member 2 (Homo sapiens, UniProt O00482); assay type: functional, cell-based;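 also: HEK293T cells transfected with LRH-1 and a StAR promoter luciferase reporter; potency for inhibitors that lower LRH-1 driven reporter light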
[14] = luciferase reporter signal reduction – luminescence, H4-C neuroglioblastoma cells, dose response (AID 2458); assay type: functional, cell-based;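 also: H4 neuroglioblastoma cells stably carrying a luciferase reporter gene fusion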
[15] = alpha-synuclein stem-loop translation blockers – luminescence, H4 neuroglioblastoma cells, dose confirmation, confirmation (AID 2454); assay type: functional, cell-based;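 also: H4 neuroglioblastoma cells carrying an alpha-synuclein 5'UTR luciferase reporter; potency for inhibition of the luciferase signal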
cells = assay type: functional, cell-based
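For AC50 in this document: cells exposed to compound for roughly 70 hours or longer before luminescence read.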

Oxytocin receptor, sequence (P30559 whole entry): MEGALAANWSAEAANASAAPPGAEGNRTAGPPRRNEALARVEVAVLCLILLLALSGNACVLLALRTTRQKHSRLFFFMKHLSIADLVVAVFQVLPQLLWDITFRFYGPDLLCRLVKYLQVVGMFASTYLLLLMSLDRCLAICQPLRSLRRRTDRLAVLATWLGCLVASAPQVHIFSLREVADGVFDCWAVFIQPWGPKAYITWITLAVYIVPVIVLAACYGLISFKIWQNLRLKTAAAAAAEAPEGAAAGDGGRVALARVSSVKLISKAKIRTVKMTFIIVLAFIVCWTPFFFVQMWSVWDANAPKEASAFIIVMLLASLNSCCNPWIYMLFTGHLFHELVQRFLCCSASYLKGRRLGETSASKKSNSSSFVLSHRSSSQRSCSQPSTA
Neuropeptide Y receptor type 2, sequence (P49146 whole entry): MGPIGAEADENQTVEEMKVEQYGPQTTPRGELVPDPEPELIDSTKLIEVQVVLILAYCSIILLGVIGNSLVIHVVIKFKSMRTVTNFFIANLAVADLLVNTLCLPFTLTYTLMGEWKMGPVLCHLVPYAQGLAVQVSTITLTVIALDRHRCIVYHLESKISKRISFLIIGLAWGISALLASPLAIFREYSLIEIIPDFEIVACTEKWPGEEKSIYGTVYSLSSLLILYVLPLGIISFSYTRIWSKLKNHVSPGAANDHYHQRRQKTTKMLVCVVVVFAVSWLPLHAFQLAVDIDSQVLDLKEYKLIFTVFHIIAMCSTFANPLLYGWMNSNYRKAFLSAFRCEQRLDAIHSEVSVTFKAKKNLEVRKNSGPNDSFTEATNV
Vasopressin V1a receptor, sequence (P37288 whole entry): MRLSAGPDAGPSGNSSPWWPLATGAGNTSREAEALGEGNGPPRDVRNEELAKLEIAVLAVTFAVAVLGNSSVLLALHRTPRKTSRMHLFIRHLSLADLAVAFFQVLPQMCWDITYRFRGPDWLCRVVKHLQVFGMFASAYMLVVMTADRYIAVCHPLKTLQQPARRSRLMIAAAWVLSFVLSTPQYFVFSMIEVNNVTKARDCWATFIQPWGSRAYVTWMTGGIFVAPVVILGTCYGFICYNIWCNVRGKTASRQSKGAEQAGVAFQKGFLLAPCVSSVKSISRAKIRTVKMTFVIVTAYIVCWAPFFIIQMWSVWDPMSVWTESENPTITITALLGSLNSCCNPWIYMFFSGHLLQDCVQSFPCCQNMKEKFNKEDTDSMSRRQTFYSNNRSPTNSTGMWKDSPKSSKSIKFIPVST
Steroidogenic factor 1, sequence (Q13285 whole entry): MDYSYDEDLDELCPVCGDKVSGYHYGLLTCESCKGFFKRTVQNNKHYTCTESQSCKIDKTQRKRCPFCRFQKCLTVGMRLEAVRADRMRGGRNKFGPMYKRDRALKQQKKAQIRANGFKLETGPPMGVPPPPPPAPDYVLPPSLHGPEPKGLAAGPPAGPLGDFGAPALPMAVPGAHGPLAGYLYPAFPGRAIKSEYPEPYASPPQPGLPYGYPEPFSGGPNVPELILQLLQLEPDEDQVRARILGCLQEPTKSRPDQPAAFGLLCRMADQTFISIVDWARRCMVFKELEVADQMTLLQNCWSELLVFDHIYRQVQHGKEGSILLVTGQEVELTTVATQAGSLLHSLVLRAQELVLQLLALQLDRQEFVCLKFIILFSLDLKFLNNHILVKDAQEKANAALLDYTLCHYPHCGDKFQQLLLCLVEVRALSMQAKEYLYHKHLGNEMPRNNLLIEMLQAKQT
Nuclear receptor subfamily 5 group A member 2, sequence (O00482 whole entry, the tested form may be a part): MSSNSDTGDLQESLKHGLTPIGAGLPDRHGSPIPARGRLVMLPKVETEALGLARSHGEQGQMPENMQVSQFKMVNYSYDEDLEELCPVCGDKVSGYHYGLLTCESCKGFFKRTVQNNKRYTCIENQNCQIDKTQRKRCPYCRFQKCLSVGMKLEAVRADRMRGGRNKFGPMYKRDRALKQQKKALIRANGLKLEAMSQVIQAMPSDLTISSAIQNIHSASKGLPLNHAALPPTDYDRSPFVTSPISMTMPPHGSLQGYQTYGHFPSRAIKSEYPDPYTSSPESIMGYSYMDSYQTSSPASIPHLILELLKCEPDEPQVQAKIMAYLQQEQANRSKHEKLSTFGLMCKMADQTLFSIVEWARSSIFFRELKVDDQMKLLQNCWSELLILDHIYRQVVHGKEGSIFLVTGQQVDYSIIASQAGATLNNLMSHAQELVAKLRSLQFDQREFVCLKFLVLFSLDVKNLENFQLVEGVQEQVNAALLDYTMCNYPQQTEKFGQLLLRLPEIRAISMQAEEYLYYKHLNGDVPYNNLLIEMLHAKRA
Neuropeptide Y receptor type 1, sequence (P25929 whole entry): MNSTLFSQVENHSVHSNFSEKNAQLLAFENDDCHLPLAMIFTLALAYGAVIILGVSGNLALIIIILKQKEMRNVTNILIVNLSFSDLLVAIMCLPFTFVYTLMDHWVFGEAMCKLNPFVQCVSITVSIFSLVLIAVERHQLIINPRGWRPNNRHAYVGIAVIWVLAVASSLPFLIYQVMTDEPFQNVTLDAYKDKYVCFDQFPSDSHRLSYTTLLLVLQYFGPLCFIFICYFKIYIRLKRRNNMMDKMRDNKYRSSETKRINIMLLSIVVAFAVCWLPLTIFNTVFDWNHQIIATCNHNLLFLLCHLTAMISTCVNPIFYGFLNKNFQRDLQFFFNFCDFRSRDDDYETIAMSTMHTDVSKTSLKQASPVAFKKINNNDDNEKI
Estrogen receptor, sequence (P03372 whole entry): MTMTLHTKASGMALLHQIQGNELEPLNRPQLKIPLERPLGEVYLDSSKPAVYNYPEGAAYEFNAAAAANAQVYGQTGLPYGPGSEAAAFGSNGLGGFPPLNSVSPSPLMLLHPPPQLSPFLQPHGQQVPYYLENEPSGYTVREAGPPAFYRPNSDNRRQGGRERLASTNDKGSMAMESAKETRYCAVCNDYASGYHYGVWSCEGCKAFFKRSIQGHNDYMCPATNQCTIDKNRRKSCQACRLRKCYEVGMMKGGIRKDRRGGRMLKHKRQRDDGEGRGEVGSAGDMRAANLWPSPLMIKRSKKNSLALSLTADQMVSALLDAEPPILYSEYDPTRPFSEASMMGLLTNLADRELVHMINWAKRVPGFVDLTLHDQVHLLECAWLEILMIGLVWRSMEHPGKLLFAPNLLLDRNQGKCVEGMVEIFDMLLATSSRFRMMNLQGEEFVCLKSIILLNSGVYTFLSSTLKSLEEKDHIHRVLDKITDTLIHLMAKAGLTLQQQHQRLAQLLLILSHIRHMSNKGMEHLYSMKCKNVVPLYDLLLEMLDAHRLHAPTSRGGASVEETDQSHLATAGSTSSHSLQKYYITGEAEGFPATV

With Cc1nnc(Oc2ccccc2F)c2ccccc12 the IC50 [1] was > 50 µM (not active) and the IC50 (Estrogen receptor) was 30 µM (active).
For O=C(OCC1OC(n2ncc(=O)[nH]c2=O)C(OC(=O)c2ccccc2)C1OC(=O)c1ccccc1)c1ccccc1 (centres undefined), the EC50 [2] was > 120 µM (not active), the EC50 [3] was 17.7 µM (active) and the EC50 [4] was 13.5 µM (active). For the same compound, the IC50 [5] was 12.2 µM (active).
With O=C(O)c1ccc(OCc2cn3ccccc3n2)cc1 the EC50 [6] was > 35.4 µM (not active), the EC50 [7] was > 35.4 µM (not active) and the EC50 (HEK293) was > 35.4 µM (not active). For the same compound, the IC50 [8] was > 83.2 µM (inactive) and the IC50 [9] was > 109 µM (inactive).
With CC1(C)CC[C@@]2(C(=O)O)C(C1)C1=CCC3[C@@]4(C)CC[C@H](O)C(C)(C)C4CC[C@@]3(C)[C@]1(C)C[C@H]2O (some centres undefined) the EC50 (Vasopressin V1a receptor) was 2.33 µM (active), the EC50 (Oxytocin receptor) was 2.67 µM (active) and the AC50 [10] was 7.33 µM (active).
For CC1CC(C)CN(c2cc(N(C)CCO)c([N+](=O)[O-])c3nonc23)C1 (centres undefined), the IC50 (Steroidogenic factor 1) was 2.15 µM (active), the IC50 [11] was 35.9 µM (inactive) and the EC50 [12] was > 100 µM (active). The IC50 [13] was 6.21 µM (active).
In the case of CC(C)(C)c1ccc(Oc2ccc(N)cn2)cc1 [LIMANTRAFIN], the EC50 [14] is reported as 0.803 µM (active), the EC50 [2] is reported as < 0.1 µM (active) and the EC50 [15] is reported as 1.05 µM (active). The EC50 [3] was 5.68 µM (active), the EC50 [4] was < 0.1 µM (active) and the EC50 (cells) was 2.75 µM (active).
